From patent US8748411B2, “Antineoplastic compounds and pharmaceutical compositions thereof” (Centro de Ingenieria Genetica y Biotechnologia, priority 2005, dated 2014)
Read-outs that look alike come from different tables or passages of the source. Where a SMILES comes first, the peptide text is derived from it.

Tests used:
Conditions in all cases: read-out: Inhibitory concentration 50 (IC50)
[1] = target: oncoprotein E7 from Human Papilloma Virus type 16 as GST fusion protein (E7-GST), phosphorylated by CK2 enzyme (Human papillomavirus type 16, UniProt P03129); format: biochemical
H-125 cells = assay: Cytotoxic effect on cultured human tumour cells (MTS, 72 h); format: cell-based
Procedure: H-125 cells from a human Non Small Cells Lung Carcinoma were soiled in 96 well plates (Costar) to a 2×10^4 cell/ml density in Dulbecco (DMEM) media (Gibco) and supplemented with Foetal Calf Serum (Gibco). 24 hours later the chemical compounds described herein were added to the cultured media in a range between 0.5 and 100 nM, incubating the mixture for 72 h at 37° C. in 5% CO2, at the end 20 μl of a 1.90 mg/ml MTS solution was added. […] The results are evaluated as growth percentage to controls without any compound, and the IC50 values were estimated using each dosage-effect curve.

[2] = test system: CK2 optimized consensus substrate sequence RRREEETEEE; assay: In vitro CK2 phosphorylation of the optimized consensus substrate peptide […], filter radioactivity; format: biochemical
Procedure: The assay consists in performing an in vitro phosphorylation reaction, using as the substrate the sequence […] (SEQ. ID NO. 1) widely accepted as an optimized consensus phosphorylation domain for the CK2 substrates.
Before the enzymatic reaction the substrate peptide was preincubated one hour at 37° C., with different concentrations of the chemical compounds. The reaction is carried out in a mixture consisting of 50 μl Tris:HCL 25 mM pH 7.5 buffer, 1 μCi of ^32P-γATP, 100 μM ATP, 40 μl E7-GST containing resin, 0.2 M NaCl, 10 mM MgCl and 1 unit of the CK2 enzyme (Promega), allowing it to proceed for 10 minutes at 37° C. After the reaction 5 μl of the reaction mixture were applied to a Whatmann PE-81 paper filter and washed four times with 10 mM H3PO4, finally the paper associated radioactivity was measured and the cpm value for each sample was directly correlated with the CK2 enzymatic activity.
The IC50 values were estimated using each dosage-effect curve.

[3] = NCI-H125, H-125 cells, 72 h, MTS, absorbance 492 nm
[4] = substrate peptide preincubated 1 h at 37° C., reaction 10 minutes at 37° C., 100 μM ATP

Sequence of oncoprotein E7 from Human Papilloma Virus type 16 as GST fusion protein (E7-GST), phosphorylated by CK2 enzyme (P03129 whole entry, looked up, the tested form may be a part): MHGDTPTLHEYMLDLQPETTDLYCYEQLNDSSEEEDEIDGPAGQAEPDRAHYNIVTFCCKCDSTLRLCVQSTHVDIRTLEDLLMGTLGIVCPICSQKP

| Structure (SMILES) | IC50 [1] [µM] | IC50 (H-125 cells; NCI-H125, 72 h) [µM] | IC50 [2] [µM] | IC50 (H-125 cells; [3]) [µM] | IC50 [2, 4] [µM] |
| --- | --- | --- | --- | --- | --- |
| CC1=C/C(=N\NC(N)=O)CC(C)(C)C1 [C30401] | 0.026 ± 0.011 | 0.103 ± 0.021 | 0.062 ± 0.011 |  |  |
| CC(C)NC(=S)Nc1c(N)nc(O)nc1O [C30402] | 0.03 ± 0.005 |  |  | 0.098 ± 0.007 | 0.074 ± 0.007 |
| CCCCNC(=O)NCc1ccco1 [C30403] | 0.034 ± 0.009 | 0.128 ± 0.009 | 0.058 ± 0.009 |  |  |
| O=C(O)CCNC(=O)NCCC(=O)O [C30404] | 0.02 ± 0.008 | 0.115 ± 0.018 | 0.061 ± 0.008 |  |  |
| N#CCNC(=O)NCCCl [C30405] | 0.027 ± 0.01 | 0.104 ± 0.012 | 0.057 ± 0.01 |  |  |
| C/C(Cc1c[nH]c2ccccc12)=N\NC(N)=S [C30406] | 0.032 ± 0.007 | 0.097 ± 0.017 | 0.06 ± 0.007 |  |  |
| C/C=C/CC/C(=N\NC(N)=O)c1ccccc1 [C30408] | 0.029 ± 0.002 | 0.119 ± 0.008 | 0.079 ± 0.005 |  |  |
| O=C(NCO)NC1NC(=O)NC1=O (stereo not drawn) [C30409] | 0.031 ± 0.006 | 0.104 ± 0.006 | 0.055 ± 0.006 |  |  |
| Clc1cc(Cl)cc(Nc2nc(C(Cl)(Cl)Cl)nc(C(Cl)(Cl)Cl)n2)c1 [C30410] | 0.04 ± 0.009 | 0.114 ± 0.007 | 0.054 ± 0.007 |  |  |
| CC(C)(C)NC(=O)NCCCl [C30411] | 0.027 ± 0.01 | 0.126 ± 0.015 | 0.066 ± 0.012 |  |  |
| CC(C)(NC(=O)NCCCl)c1ccccc1 [C30412] | 0.03 ± 0.003 | 0.091 ± 0.015 | 0.071 ± 0.005 |  |  |
| CC(C)(CS(C)(=O)=O)NC(=O)NCCCl [C30413] | 0.024 ± 0.009 | 0.13 ± 0.011 | 0.064 ± 0.011 |  |  |
| N=C(N)C(NC=O)C(=O)NCc1ccccc1 (stereo not drawn) [C30414] | 0.023 ± 0.009 | 0.118 ± 0.009 | 0.068 ± 0.009 |  |  |
| C/C(COc1ccccc1)=N/NC(N)=S [C30415] | 0.033 ± 0.008 | 0.112 ± 0.01 | 0.072 ± 0.01 |  |  |
| NCC(=O)NCC(=O)NCC(=O)NCC(=O)O [C31416] (H-GGGG-OH) | 0.039 ± 0.006 |  |  | 0.109 ± 0.006 | 0.069 ± 0.006 |
| CN(CC(=O)O)C(=O)CNC(=O)OCc1ccccc1 [C31417] (HELM PEPTIDE1{[O=C(OCc1ccccc1)[*:2]].G.[Sar]}$$$$V2.0) | 0.028 ± 0.011 | 0.118 ± 0.021 | 0.078 ± 0.011 |  |  |
| CC(Br)C(=O)NCC(=O)NCC(=O)O (stereo not drawn) [C31418] | 0.032 ± 0.005 | 0.123 ± 0.015 | 0.072 ± 0.005 |  |  |
| NC(=S)NN=CCn1ccc(=O)n(CC=NNC(N)=S)c1=O [C31419] | 0.03 ± 0.004 | 0.132 ± 0.018 | 0.06 ± 0.008 |  |  |
| NCCC(=O)NCC(=O)NCC(=O)O [C31420] (HELM PEPTIDE1{[bAla].G.G}$$$$V2.0) | 0.025 ± 0.007 | 0.125 ± 0.01 | 0.055 ± 0.011 |  |  |
